Results: patent publication US5089516A, “1-phenyl-3,5-pyrazolidinedione hydroxystyrene compounds which have tyrosine kinase inhibiting activity” (Kanegafuchi Kagaku Kogyo Kabushiki Kaisha, priority 1987, dated 1992)
≈ marks a conversion by molar mass, not a printed value. Where “and” joins values, the source holds several entries; their conditions need not be identical. Equal values may be shown once.

Assays:
[1] = target: T1, 5-lipoxygenase (Cavia porcellus, UniProt A0A286X958); assay: 5-Lipoxygenase inhibiting activity (5-HETE formation, cytosol of peritoneal exudate cells); type: biochemical, Hartley guinea pigs; details: 10 μM in the reaction mixture; read-out: Inhibition rate (5-lipoxygenase)
T1 construct: The cytosol fraction was used as an enzyme solution; from tissue; host or cells: peritoneal exudate cells of casein-injected Hartley guinea pigs, 105,000×g cytosol
T1 sequence (A0A286X958 1-674): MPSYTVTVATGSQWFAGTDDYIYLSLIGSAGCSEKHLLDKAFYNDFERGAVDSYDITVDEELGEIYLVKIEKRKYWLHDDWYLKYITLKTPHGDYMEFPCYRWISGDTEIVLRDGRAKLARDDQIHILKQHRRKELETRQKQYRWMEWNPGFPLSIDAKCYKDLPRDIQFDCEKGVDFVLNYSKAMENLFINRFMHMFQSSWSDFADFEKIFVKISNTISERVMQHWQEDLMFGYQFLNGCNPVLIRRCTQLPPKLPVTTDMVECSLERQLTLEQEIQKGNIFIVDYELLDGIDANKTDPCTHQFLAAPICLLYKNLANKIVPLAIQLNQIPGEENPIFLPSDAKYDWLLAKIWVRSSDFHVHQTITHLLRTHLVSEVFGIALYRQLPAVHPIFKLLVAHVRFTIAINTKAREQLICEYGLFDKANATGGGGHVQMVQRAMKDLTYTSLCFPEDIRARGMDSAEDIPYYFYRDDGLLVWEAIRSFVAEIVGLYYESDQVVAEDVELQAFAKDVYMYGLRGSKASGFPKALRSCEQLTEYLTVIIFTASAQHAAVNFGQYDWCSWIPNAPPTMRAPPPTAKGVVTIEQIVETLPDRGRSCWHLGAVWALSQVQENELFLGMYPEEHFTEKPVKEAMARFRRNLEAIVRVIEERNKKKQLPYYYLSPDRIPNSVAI
Procedure: 5-Lipoxygenase inhibiting activity of the compound of the present invention was measured referring to the method for measuring 5-lipoxygenase activity by K. Ochi et al. [Journal of Biological Chemistry (J. Biol. Chem.), 258, 5754(1983)].
Sterilized 2% solution of casein (pH 7) was injected intraperitoneally into Hartley guinea pigs in a volume of 5 ml/100 g body weight. Fifteen hours later, the guinea pigs were killed and peritoneal exudate cells thereof were collected. After the exudate cells were washed with 17 mM Tris--HCl buffer (pH 7.4) containing 0.74% ammonium to remove contaminating erythrocytes in the exudate cells suspension, the cells were washed with buffer A (130 mM NaCl, 1 mM EDTA, 25 mM sodium phosphate, pH 7.4). The washed cells were suspended in buffer B (50 mM sodium phosphate, 1 mM EDTA, 0.1% gelatin, pH 7.4) at 10^8 cells/ml, sonicated and centrifuged at 10,000×g for 20 minutes under the cold atmosphere. The obtained supernatant was further centrifuged at 105,000×g for 60 minutes under the cold atmosphere. The cytosol fraction was used as an enzyme solution.
The enzyme solution was preincubated with the […] in the presence of 1 mM CaCl2, 1 mM reduced gluthathione (GSH) and 2 mM ATP at 30° C. for 5 minutes in 0.2 ml of a reaction mixture and the mixture was further incubated at 30° C. for 5 minutes by adding 20 μM [1-^14 C] arachidonic acid (0.1 μCi) thereto. The test compounds were dissolved in ethanol to give the reaction mixture containing 2% ethanol as a final concentration. Only ethanol was added to the reaction mixture as a control group.
To the reaction mixture were added 2.5 ml of a mixture of chloroform and methanol (2/1 by volume) and 0.3 ml of 40 mM citric acid to stop the reaction. The mixture was vortexed and an organic solvent layer was evaporated to dryness under nitrogen gas. After dissolving the dried organic layer in a fixed amount of the mixture of chloroform and methanol (2/1 by volume), it was spotted on a silica gel plate (Kiesel gel 60F254, E. Merck) and products were separated using a developer (the organic solvent layer of ethyl acetate/water/2,2,4-trimethylpentane/acetic acid=11/10/5/2 by volume). After the radioactive position of the product was determined by means of a radioautography, an area equivalent to that of 5-hydroxyeicosatetraenoic acid (hereinafter referred to as "5-HETE") was scraped off, and then its radioactivity was measured with a liquid scintillation counter. With regarding the amount of the generated 5-HETE as the 5-lipoxygenase inhibiting activity, the inhibition rate (%) in comparison with the control group was calculated according to the following equation. [formula]

[2] = tested on: Micrococcus luteus IFO 13867; assay: Antibacterial activity (MIC) against Micrococcus luteus IFO 13867; type: cell-based; details: IFO13867, 37° C., 18 to 20 hours
Procedure: (§1) The antibacterial activity against Gram-positive bacteria of the compound of the present invention was measured according to a standard method of Nippon Kagaku Ryoho Gakkai [Nippon Kagaku Ryoho Gakkaishi (Journal of the Chemical therapy of Japan), 29, 76(1981)].
(§2) As for gram-positive bacteria, after cultivation in Meuller Hinton broth medium (made by Difco Co., Ltd.), there was prepared a bacterial suspension for inoculation containing about 10^6 of the bacteria per 1 ml of the Meuller Hinton broth medium. On the other hand, the test compound was added to Mueller Hinton agar medium (made by Difco Co., Ltd.) so as to give agar plate medium containing test samples which are twofold serial diluted. Then, the above-mentioned bacterial suspension for inoculation was streaked to each agar medium for about 2 cm with a looped nichrome wire (inner diameter: about 1 mm).
(§3) After that the each agar plate medium was cultured at 37° C. for 18 to 20 hours, the growth of the test bacteria was determined.

[3] = UV absorption spectrum; type: physicochemical; details: in methanol; for molar extinction coefficient: at the λ max of the same line
Procedure: Each UV absorption spectrum of the compounds of the present invention was measured according to the conventional method, in which methanol was used as a solvent, and thereby molar extinction coefficient thereof was calculated.

[4] = target: T2, epidermal growth factor receptor-tyrosine kinase complex (Homo sapiens, UniProt P00533); assay: Tyrosine kinase inhibiting activity (A-431 membrane preparation, EGF-stimulated); type: biochemical; details: 1 μM in the reaction mixture; read-out: Tyrosine kinase inhibition rate
T2 construct: The membrane preparation was employed in the following measurement without solubilization; endogenous in cells; host or cells: A-431 (ATCC CRL1555), membrane preparation, not solubilized
Procedure: Tyrosine kinase inhibiting activity of the compound of the present invention was measured referring to a method for measuring tyrosine kinase activity by G. Carpenter or by S. Cohen et al. [J. Biol. Chem., 254, 4884(1979); J. Biol. Chem., 257, 1528(1982)].
Cell line A-431 derived from human carcinoma (ATCC CRL1555) was cultured at 37° C. under the condition of 5% CO2 in Dulbecco's modified Eagle's medium (made by NISSUE PHARMACEUTICAL CO., LTD.) containing 10% by volume fetal bovine serum, 50 μg/ml of streptomycin, 50 IU/ml of penicillin G and 50 μg/ml of kanamycin. […] The membrane preparation was employed in the following measurement without solubilization.
A test compound dissolved in dimethylsulfoxide (hereinafter referred to as "DMSO") was added to a mixture of 20 mM of N-2-hydroxyethylpiperazine-N'-2-ethanesulfonic acid buffer (pH 7.4), 1 mM of MnCl2, 7.5 μg of bovine serium albumin and the membrane preparation (10 μg as protein). After incubation at 0° C. for 5 minutes, 100 ng of epidermal growth factor (hereinafter referred to as "EGF") was added thereto and the mixture was further incubated at 0° C. for 15 minutes. [γ-^32 P]ATP (3000 Ci/mmol, 0.1 μCi) was added thereto to make final volume of 70 μl. After incubation at 0° C. for 15 minutes, 50 μl of the reaction mixture was soaked into Whatman 3 MM filter paper (made by Whatman Ltd.) and immediately the reaction was stopped by an aqueous solution of 10% by weight trichloroacetic acid containing 10 mM sodium pyrophosphate. The filter paper was sufficiently washed with the same solution and then washed with ethanol, and dried. Radioactivity present in the filter paper was measured by liquid scintillation counter (A). Also, radioactivity was measured in case of the reaction without EGF (B), the reaction without the test compound (C), and the reaction without both EGF and the test compound (D) as a control.
Tyrosine kinase inhibition rate (%) was calculated by the following equation. [formula]

[5] = tested on: Nycobacterium smegmatis ATCC 607; assay: Antibacterial activity (MIC) against acid-fast bacteria; type: cell-based; details: 37° C., 40 to 42 hours
Procedure: As for acid-fast bacteria, after cultured in glycerol broth medium, there was prepared a bacterial suspension for inoculation containing about 10^6 of the bacteria per 1 ml of the medium. On the other hand, there were prepared some glycerol Czapek agar plating media with adding the test compounds, and thereto the bacterial suspension for inoculation was streaked.

[6] = target: T3, reverse transcriptase derived from Moloney-Murine Leukemia Virus (M-MLV) (Moloney murine leukemia virus, UniProt P03355); assay: Inhibiting activity against reverse transcriptase derived from M-MLV; type: biochemical; details: read-out: Inhibition rate (reverse transcriptase derived from M-MLV); for inhibition at 1 µM: 1 μM in the reaction mixture
T3 construct: reverse transcriptase derived from Moloney-Murine Leukemia Virus; purchased Pharmacia K. K
Procedure: There was found the following point by using reverse transcriptase derived from Moloney-Murine Leukemia Virus (hereinafter referred to as "M-MLV").
The compound of the present invention was dissolved in DMSO to give a 100 mM solution thereof. Then, the solution was diluted with distilled water containing DMSO to give a solution of the test compound having a defined concentration. A mixed ratio of DMSO and distilled water was adjusted so that the concentration of DMSO at this time is 10% by volume and a final concentration of DMSO at the beginning of a reaction is 1% by volume.
The thus prepared solution of the test compound was mixed with a solution containing 50 mM of Tris--HCl buffer (pH 8.3), 8 mM of MgCl2, 30 mM of NaCl, 50 mM of dithiothreitol (made by Wako Pure Chemical Industries Ltd.), 0.2 mM of thymidine-5'-triphosphate (made by Pharmacia K. K.) and 6 U/ml of reverse transciptase derived from M-MLV (made by Pharmacia K. K.), and preincubated at 37° C. for 30 minutes. After there was added thereto 10 μg/ml of polyadenylic acid (made by PL Biochemicals Co., Ltd.), 0.01 U/ml of oligodeoxy thymidylic acid (made by Pharmacia K. K.) and 10 μCi/ml of [methyl-^3 H] thymidine-5'-triphosphate (made by Amersham Japan Co., Ltd., 47 Ci/mmol) to give a reaction mixture, the mixture was further incubated at 37° C. for 30 minutes, followed by cooling with ice to stop the reaction.
The radioactivity incorporated into deoxyribonucleic acids was measured according to the method of Linteril et al (Science 170, 447 to 449 (1967)). A defined volume of the reaction mixture was soaked into DE-81 filter paper (made by Whatman Ltd.), the filter paper was washed with 5% by weight of Na2 HPO4 solution for three times, and with distilled water and ethanol successively, and then dried. Radioactivity contained in the filter paper was measured by liquid scintillation counter to give the each radioactivity of the test solution groups.
On the other hand, the same procedure as above was carried out using DMSO-distilled water without the test compound instead of using the test solution, to give the value of radioactivity of a control group.
Reverse transcriptase derived from M-MLV inhibition rate (%) was calculated by the following equation. [formula]

[7] = tested on: Bacillus subtilis IFO 3134; assay: Antibacterial activity (MIC) against Bacillus subtilis IFO 3134; type: cell-based; details: IFO3134, 37° C., 18 to 20 hours
Procedure: as §1, §2, §3

[8] = tested on: Staphylococcus aureus IFO 12732; assay: Antibacterial activity (MIC) against Staphylococcus aureus IFO 12732; type: cell-based; details: IFO12732, 37° C., 18 to 20 hours
Procedure: as §1, §2, §3

T2 sequence (P00533 25-1210, one chain of several): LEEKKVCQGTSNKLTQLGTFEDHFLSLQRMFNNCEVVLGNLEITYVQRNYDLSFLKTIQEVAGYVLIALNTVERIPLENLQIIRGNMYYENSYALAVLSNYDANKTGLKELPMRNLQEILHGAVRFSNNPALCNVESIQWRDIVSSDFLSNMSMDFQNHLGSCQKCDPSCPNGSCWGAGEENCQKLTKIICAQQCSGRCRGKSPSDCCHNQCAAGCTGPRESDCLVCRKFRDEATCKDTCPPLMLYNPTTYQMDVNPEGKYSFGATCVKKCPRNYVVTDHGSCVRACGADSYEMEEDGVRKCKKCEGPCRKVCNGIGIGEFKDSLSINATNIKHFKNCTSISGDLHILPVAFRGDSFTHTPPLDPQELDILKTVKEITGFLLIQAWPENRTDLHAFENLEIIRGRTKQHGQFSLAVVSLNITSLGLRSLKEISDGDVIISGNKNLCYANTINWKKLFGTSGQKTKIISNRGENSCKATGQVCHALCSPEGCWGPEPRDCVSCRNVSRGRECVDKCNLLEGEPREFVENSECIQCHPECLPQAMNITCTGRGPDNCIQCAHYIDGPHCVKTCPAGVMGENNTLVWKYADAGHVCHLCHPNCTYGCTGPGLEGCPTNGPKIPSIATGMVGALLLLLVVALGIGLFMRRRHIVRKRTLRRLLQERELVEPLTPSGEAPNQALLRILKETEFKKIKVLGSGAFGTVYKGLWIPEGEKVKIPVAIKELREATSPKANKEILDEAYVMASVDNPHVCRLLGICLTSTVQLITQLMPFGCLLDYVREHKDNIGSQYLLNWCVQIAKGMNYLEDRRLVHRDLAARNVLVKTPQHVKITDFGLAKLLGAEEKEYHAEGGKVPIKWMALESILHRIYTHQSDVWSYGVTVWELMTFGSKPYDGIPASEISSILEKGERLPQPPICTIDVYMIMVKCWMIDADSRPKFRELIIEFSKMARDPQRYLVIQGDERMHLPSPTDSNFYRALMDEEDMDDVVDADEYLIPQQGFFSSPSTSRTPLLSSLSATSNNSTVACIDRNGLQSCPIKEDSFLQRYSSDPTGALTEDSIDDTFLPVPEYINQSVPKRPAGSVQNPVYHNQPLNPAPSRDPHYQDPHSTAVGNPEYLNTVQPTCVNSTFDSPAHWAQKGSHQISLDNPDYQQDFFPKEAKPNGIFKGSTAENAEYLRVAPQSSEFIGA

Row | inhibition at 10 µM [1] [%] | λ max [3] | molar extinction coefficient [3] | Structure (SMILES) | MIC [2] [µg/mL] | inhibition at 1 µM [4] [%] | MIC [5] [µg/mL] | inhibition at 10 µM ([6]; 10 μM in the reaction mixture) [%] | MIC [7] [µg/mL] | MIC [8] [µg/mL] | inhibition at 1 µM [6] [%]
1 | 85 | 257 nm and 361 nm | 1.87 × 10^4 and 1.80 × 10^4 | O=C1Nc2ccccc2C1=Cc1cc(Cc2ccccc2)c(O)c(Cc2ccccc2)c1 [Compound 4] | ≤ 6 | 74 |  |  |  |  | 
2 | 28 | 249 nm and 347 nm | 1.51 × 10^4 and 2.40 × 10^4 | N#CC(=Cc1cc(Cc2ccccc2)c(O)c(Cc2ccccc2)c1)C(N)=O [Compound 16] | ≤ 15 | 100 | ≤ 15 |  | ≤ 15 | ≤ 15 | 
3 |  | 304 nm | 1.87 × 10^4 | O=C1NCCC1=Cc1cc(Cc2ccccc2)c(O)c(Cc2ccccc2)c1 [Compound 18] |  | 87 |  |  |  |  | 

Continued, molecule first:

Row | Structure (SMILES) | inhibition at 10 µM [1] [%] | λ max [3] | molar extinction coefficient [3] | MIC [2] [µg/mL] | inhibition at 1 µM [4] [%] | MIC [5] [µg/mL] | inhibition at 10 µM ([6]; 10 μM in the reaction mixture) [%] | MIC [7] [µg/mL] | MIC [8] [µg/mL] | inhibition at 1 µM [6] [%]
4 | N#CC(=Cc1cc(-c2ccccc2)c(O)c(-c2ccccc2)c1)C(N)=O [Compound 15] |  | 271 nm and 348 nm | 2.04 × 10^4 and 2.11 × 10^4 | 60 (≈ 176 µM) | 100 | ≤ 15 | 59 | 100 (≈ 294 µM) | 60 (≈ 176 µM) | 
5 | O=C1NC(=S)SC1=Cc1cc(-c2ccccc2)c(O)c(-c2ccccc2)c1 [Compound 1] |  |  |  | ≤ 6 | 23 | 6 (≈ 15.4 µM) |  | ≤ 6 | 12 (≈ 30.8 µM) | 96
6 | O=C1NN(c2ccccc2)C(=O)C1=Cc1cc(-c2ccccc2)c(O)c(-c2ccccc2)c1 [Compound 19] |  |  |  | 50 (≈ 116 µM) | 74 | ≤ 6 |  | 100 (≈ 231 µM) | 100 (≈ 231 µM) | 75
